Assay results published in ChEMBL document CHEMBL4699503, “Structural basis for producing selective MAP2K7 inhibitors” (Bioorg Med Chem Lett, 2020).

Target: T1, Dual specificity mitogen-activated protein kinase kinase 7 (Homo sapiens, UniProt O14733)
T1 sequence (O14733 whole entry): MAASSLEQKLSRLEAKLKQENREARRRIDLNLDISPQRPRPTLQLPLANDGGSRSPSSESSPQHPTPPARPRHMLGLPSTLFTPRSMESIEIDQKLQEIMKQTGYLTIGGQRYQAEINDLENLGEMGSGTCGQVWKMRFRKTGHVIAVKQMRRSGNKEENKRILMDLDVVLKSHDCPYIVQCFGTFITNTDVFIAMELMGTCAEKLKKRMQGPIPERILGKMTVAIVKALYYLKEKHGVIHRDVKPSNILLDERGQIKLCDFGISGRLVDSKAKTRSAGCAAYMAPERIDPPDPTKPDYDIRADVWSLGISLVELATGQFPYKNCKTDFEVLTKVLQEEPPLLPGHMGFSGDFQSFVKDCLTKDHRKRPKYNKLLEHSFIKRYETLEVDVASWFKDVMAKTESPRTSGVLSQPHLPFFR
Assay: Inhibition of MAP2K7 (unknown origin) using JNK peptide KFMMTPYVVTR incubated for 30 mins measured by multimode reader based ADP-glo assay

`C#CCNC(=O)c1cc(NC(=O)C=C)cc(-c2n[nH]c3ccccc23)c1` showed an IC50 of 6.5 nM.
